Laboratory results published in PubChem BioAssay AID330 (DTP/NCI, 2004).
“And” between values parts separate entries of the source, which are not always exact repeats. Identical values can stand only once. Inconclusive results and toxic doses are left out.

Test system: P388 leukemia ip, CD2F1 mice, survival T/C
Assay: NCI In Vivo Anticancer Drug Screen. Data for tumor model P388 Leukemia (intraperitoneal) in CD2F1 (CDF1) mice
Settings: endpoint: median survival time, higher = longer survival
Summary of the method: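 Mice carrying the transplanted tumor received test compound or vehicle. Survival was recorded in each group, and the value is the treated-group measurement divided by that of the vehicle-treated control group.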

[1] = dose: 100.0 mg/kg/injection, schedule: Q01DX009 (ip), vehicle: saline with Tween-80
[2] = dose: 200.0 mg/kg/injection, schedule: Q01DX009 (ip), vehicle: saline with Tween-80
[3] = dose: 25.0 mg/kg/injection, schedule: Q04DX003 (ip), vehicle: water
[4] = dose: 50.0 mg/kg/injection, schedule: Q04DX003 (ip), vehicle: water
[5] = dose: 100.0 mg/kg/injection, schedule: Q04DX003 (ip), vehicle: water

## c1ccc2c(c1)C1CCC2c2ccccc21
[1]
  T/C: 118 % of control
[2]
  T/C: 104 % of control
dose: 400.0 mg/kg/injection, schedule: Q01DX009 (ip), vehicle: saline with Tween-80
  T/C: 118 % of control

## C=Cc1c2[n-]c(c1C)/C=c1\[n-]/c(c(C)c1C=C)=C\c1[n-]c(c(CCC(=O)O)c1C)/C=c1\[n-]/c(c(C)c1CCC(=O)O)=C\2.[Pt+4]
dose: 50.0 mg/kg/injection, schedule: Q04DX002 (ip), vehicle: saline
  T/C: 89 % of control
dose: 100.0 mg/kg/injection, schedule: Q04DX002 (ip), vehicle: saline
  T/C: 100 % of control
dose: 200.0 mg/kg/injection, schedule: Q04DX002 (ip), vehicle: saline
  T/C: 97 % of control

## O=C(O)C1C(CCl)=C1CCl
dose: 60.0 mg/kg/injection, schedule: Q01DX005 (ip), vehicle: Klucel (hydroxypropylcellulose) (HPC)
  T/C: 100 % of control
dose: 120.0 mg/kg/injection, schedule: Q01DX005 (ip), vehicle: Klucel (hydroxypropylcellulose) (HPC)
  T/C: 104 % of control

## O=[N+]([O-])c1ccc(F)c(Cl)c1
dose: 100.0 mg/kg/injection, schedule: Q04DX003 (ip), vehicle: other
  T/C: 100 % of control
dose: 200.0 mg/kg/injection, schedule: Q04DX003 (ip), vehicle: other
  T/C: 100 % of control

## N#Cc1ccc(Cl)cc1
dose: 50.0 mg/kg/injection, schedule: Q01DX009 (ip), vehicle: saline with Tween-80
  T/C: 101 % of control
[1]
  T/C: 89 % of control
[2]
  T/C: 93 % of control

## CCN(Cc1ccc(Cl)c(Cl)c1)c1ccc2nc(N)nc(N)c2c1C
dose: 6.25 mg/kg/injection, schedule: Q01DX009 (ip), vehicle: Klucel (hydroxypropylcellulose) (HPC)
  T/C: 121 % of control
dose: 12.5 mg/kg/injection, schedule: Q01DX009 (ip), vehicle: Klucel (hydroxypropylcellulose) (HPC)
  T/C: 116 % of control
dose: 12.5 mg/kg/injection, schedule: Q04DX003 (ip), vehicle: water
  T/C: 116 % of control and 91 % of control
dose: 25.0 mg/kg/injection, schedule: Q01DX009 (ip), vehicle: Klucel (hydroxypropylcellulose) (HPC)
  T/C: 114 % of control
[3]
  T/C: 114 % of control and 122 % of control
[4]
  T/C: 155 % of control
[5]
  T/C: 117 % of control and 90 % of control

## O=C(O)C1(C(=O)O)CCC1.[NH2-].[NH2-].[Pt+2]
dose: 6.25 mg/kg/injection, schedule: Q01DX005 (ip), vehicle: water
  T/C: 152 % of control
dose: 6.25 mg/kg/injection, schedule: Q01DX009 (ip), vehicle: water
  T/C: 167 % of control
dose: 12.5 mg/kg/injection, schedule: Q01DX001 (im), vehicle: suspension in saline
  T/C: 105 % of control
dose: 12.5 mg/kg/injection, schedule: Q01DX001 (ip), vehicle: suspension in saline
  T/C: 117 % of control
dose: 12.5 mg/kg/injection, schedule: Q01DX001 (iv), vehicle: suspension in saline
  T/C: 108 % of control
dose: 12.5 mg/kg/injection, schedule: Q01DX001 (sc), vehicle: suspension in saline
  T/C: 103 % of control
dose: 12.5 mg/kg/injection, schedule: Q01DX005 (ip), vehicle: water
  T/C: 166 % of control
dose: 12.5 mg/kg/injection, schedule: Q01DX009 (ip), vehicle: saline
  T/C: 113 % of control
dose: 12.5 mg/kg/injection, schedule: Q01DX009 (ip), vehicle: water
  T/C: 189 % of control
dose: 12.5 mg/kg/injection, schedule: Q04DX003 (iv), vehicle: saline
  T/C: 110 % of control
dose: 25.0 mg/kg/injection, schedule: Q01DX001 (im), vehicle: suspension in saline
  T/C: 117 % of control
dose: 25.0 mg/kg/injection, schedule: Q01DX001 (ip), vehicle: saline
  T/C: 107 % of control
dose: 25.0 mg/kg/injection, schedule: Q01DX001 (ip), vehicle: suspension in saline
  T/C: 121 % of control
dose: 25.0 mg/kg/injection, schedule: Q01DX001 (iv), vehicle: suspension in saline
  T/C: 106 % of control
dose: 25.0 mg/kg/injection, schedule: Q01DX001 (oral), vehicle: suspension in saline
  T/C: 100 % of control
dose: 25.0 mg/kg/injection, schedule: Q01DX001 (sc), vehicle: suspension in saline
  T/C: 107 % of control
dose: 25.0 mg/kg/injection, schedule: Q01DX005 (ip), vehicle: water
  T/C: 194 % of control
dose: 25.0 mg/kg/injection, schedule: Q01DX005 (iv), vehicle: water
  T/C: 90 % of control
dose: 25.0 mg/kg/injection, schedule: Q01DX009 (ip), vehicle: saline
  T/C: 152 % of control
dose: 25.0 mg/kg/injection, schedule: Q01DX009 (ip), vehicle: water
  T/C: 112 % of control
dose: 25.0 mg/kg/injection, schedule: Q04DX003 (ip), vehicle: saline
  T/C: 114 % of control
[3]
  T/C: 186 % of control
dose: 25.0 mg/kg/injection, schedule: Q04DX003 (iv), vehicle: saline
  T/C: 113 % of control
dose: 50.0 mg/kg/injection, schedule: Q01DX001 (im), vehicle: suspension in saline
  T/C: 110 % of control
dose: 50.0 mg/kg/injection, schedule: Q01DX001 (ip), vehicle: suspension in saline
  T/C: 124 % of control
dose: 50.0 mg/kg/injection, schedule: Q01DX001 (ip), vehicle: water
  T/C: 161 % of control
dose: 50.0 mg/kg/injection, schedule: Q01DX001 (iv), vehicle: suspension in saline
  T/C: 110 % of control
dose: 50.0 mg/kg/injection, schedule: Q01DX001 (oral), vehicle: suspension in saline
  T/C: 103 % of control
dose: 50.0 mg/kg/injection, schedule: Q01DX001 (sc), vehicle: suspension in saline
  T/C: 110 % of control
dose: 50.0 mg/kg/injection, schedule: Q01DX009 (ip), vehicle: saline
  T/C: 100 % of control
[4]
  T/C: 217 % of control
dose: 50.0 mg/kg/injection, schedule: Q04DX003 (iv), vehicle: saline
  T/C: 117 % of control
dose: 50.0 mg/kg/injection, schedule: Q04DX003 (oral), vehicle: saline
  T/C: 116 % of control
dose: 100.0 mg/kg/injection, schedule: Q01DX001 (im), vehicle: suspension in saline
  T/C: 111 % of control
dose: 100.0 mg/kg/injection, schedule: Q01DX001 (ip), vehicle: water
  T/C: 164 % of control
dose: 100.0 mg/kg/injection, schedule: Q01DX001 (iv), vehicle: saline
  T/C: 105 % of control
dose: 100.0 mg/kg/injection, schedule: Q01DX001 (iv), vehicle: suspension in saline
  T/C: 115 % of control
dose: 100.0 mg/kg/injection, schedule: Q01DX001 (iv), vehicle: water
  T/C: 93 % of control
dose: 100.0 mg/kg/injection, schedule: Q01DX001 (sc), vehicle: suspension in saline
  T/C: 120 % of control
dose: 100.0 mg/kg/injection, schedule: Q04DX003 (ip), vehicle: saline
  T/C: 170 % of control
[5]
  T/C: 96 % of control
dose: 100.0 mg/kg/injection, schedule: Q04DX003 (iv), vehicle: saline
  T/C: 123 % of control
dose: 100.0 mg/kg/injection, schedule: Q04DX003 (oral), vehicle: saline
  T/C: 114 % of control
dose: 200.0 mg/kg/injection, schedule: Q01DX001 (im), vehicle: suspension in saline
  T/C: 105 % of control
dose: 200.0 mg/kg/injection, schedule: Q01DX001 (iv), vehicle: suspension in saline
  T/C: 100 % of control
dose: 200.0 mg/kg/injection, schedule: Q01DX001 (oral), vehicle: saline
  T/C: 104 % of control
dose: 200.0 mg/kg/injection, schedule: Q01DX001 (oral), vehicle: suspension in saline
  T/C: 110 % of control
dose: 200.0 mg/kg/injection, schedule: Q01DX001 (sc), vehicle: suspension in saline
  T/C: 107 % of control
dose: 200.0 mg/kg/injection, schedule: Q04DX003 (oral), vehicle: saline
  T/C: 117 % of control
dose: 400.0 mg/kg/injection, schedule: Q01DX001 (iv), vehicle: saline
  T/C: 91 % of control
dose: 400.0 mg/kg/injection, schedule: Q01DX001 (oral), vehicle: saline
  T/C: 100 % of control
dose: 400.0 mg/kg/injection, schedule: Q01DX001 (oral), vehicle: suspension in saline
  T/C: 101 % of control
dose: 400.0 mg/kg/injection, schedule: Q04DX003 (oral), vehicle: saline
  T/C: 122 % of control

## c1ccc(-c2cc(CNc3nc4ccccc4s3)on2)cc1
dose: 50.0 mg/kg/injection, schedule: Q01DX009 (ip), vehicle: Klucel (hydroxypropylcellulose) (HPC)
  T/C: 99 % of control
dose: 100.0 mg/kg/injection, schedule: Q01DX009 (ip), vehicle: Klucel (hydroxypropylcellulose) (HPC)
  T/C: 99 % of control
dose: 200.0 mg/kg/injection, schedule: Q01DX009 (ip), vehicle: Klucel (hydroxypropylcellulose) (HPC)
  T/C: 99 % of control

## O=c1c2ccccc2cc2n1CCN2
dose: 50.0 mg/kg/injection, schedule: Q01DX005 (ip), vehicle: Klucel (hydroxypropylcellulose) (HPC)
  T/C: 96 % of control
dose: 100.0 mg/kg/injection, schedule: Q01DX005 (ip), vehicle: Klucel (hydroxypropylcellulose) (HPC)
  T/C: 112 % of control
dose: 200.0 mg/kg/injection, schedule: Q01DX005 (ip), vehicle: Klucel (hydroxypropylcellulose) (HPC)
  T/C: 107 % of control

## C=C(/C=C/CCCC)NC(=O)OCc1ccccc1
dose: 60.0 mg/kg/injection, schedule: Q01DX005 (ip), vehicle: saline with Tween-80
  T/C: 97 % of control
dose: 120.0 mg/kg/injection, schedule: Q01DX005 (ip), vehicle: saline with Tween-80
  T/C: 96 % of control
dose: 240.0 mg/kg/injection, schedule: Q01DX005 (ip), vehicle: saline with Tween-80
  T/C: 104 % of control
